Results reported in patent US8546608B2, “Proteasome inhibitors and methods of using the same” (Cephalon, Inc., priority 2003, dated 2013).
Where a name gives a salt, the structure may show the parent alone. Read-outs that look alike come from different tables or passages of the source.

Columns and labels:
[1] = target: T1, proteasome in Molt-4 cells (human leukemia) (Homo sapiens, UniProt P20618+P28074); type: cell-based
T1 sequence (P28074 60-263): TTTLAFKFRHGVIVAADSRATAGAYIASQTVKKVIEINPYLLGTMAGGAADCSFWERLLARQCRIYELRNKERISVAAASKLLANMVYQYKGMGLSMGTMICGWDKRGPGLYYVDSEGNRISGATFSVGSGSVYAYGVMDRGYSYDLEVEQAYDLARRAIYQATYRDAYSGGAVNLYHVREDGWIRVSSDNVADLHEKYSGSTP
T1 sequence (P20618 29-241): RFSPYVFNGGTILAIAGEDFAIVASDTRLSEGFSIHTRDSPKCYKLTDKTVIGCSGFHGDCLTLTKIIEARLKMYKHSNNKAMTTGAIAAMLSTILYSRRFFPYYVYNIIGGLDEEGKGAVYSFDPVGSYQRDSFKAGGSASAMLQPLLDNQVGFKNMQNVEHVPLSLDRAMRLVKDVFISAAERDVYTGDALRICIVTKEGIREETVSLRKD
In short: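 Intact Molt-4 cells (6×10^6 cells/mL) in HEPES-buffered saline were preincubated with inhibitor 15 min at 37 °C, then given cell-permeable MeOSuc-FLF-AFC at 25 μM final.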

[2] = target: T2, 20S Human Erythrocyte Proteasome (HEP) (Homo sapiens, UniProt P20618+P28074); test: Chymotrypsin-like activity of 20S Human Erythrocyte Proteasome (HEP), IC50 determination; type: biochemical; settings: assay of Example C, inhibition of HEP
T2 construct: 20S Human Erythrocyte Proteasome (HEP), purchased from Immatics Biotechnologies Inc; purchased Immatics Biotechnologies Inc., Tübingen, Germany; host or cells: human erythrocytes (natural source)
In short: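 20S proteasome at 0.2 μg/mL (about 0.6 nM catalytic sites) in 20 mM Tris with 0.04% SDS, preincubated 15 min at 37° C with inhibitor before Suc-LLVY-AMC (100 μM final). AMC fluorescence read in the linear range; triplicates, IC50 from concentration series.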

[3] = assay of Example E, inhibition of MOLT4; read-out: MOLT4 (EC50)

Row | Molecule | EC50 [1, 3] [nM] | IC50 [2] [nM] | EC50 ([1]; read-out: MOLT4 (EC50); assay of Example E, inhibition of MOLT4) [nM]
1 | CCCCOCC(=O)N[C@@H](CCCNC(=N)N[N+](=O)[O-])C(=O)N[C@@H](CC(C)C)B1O[C@@H]2C[C@@H]3C[C@@H](C3(C)C)[C@]2(C)O1 [D.2.3, 2-Butoxyacetamide,N-[(1S)-1-[[[(1R)-1-[(3aS,4S,6S,7aR)-hexahydro-3a,5,5-trimethyl-4,6-methano-1,3,2-benzodioxaborol-2-yl]-3-methylbutyl]amino]carbonyl]-4-[[imino(nitroamino)methyl]amino]butyl]] | < 200 | < 10 | 
2 | COc1ccc(F)cc1C(=O)N[C@@H](CCCNC(=N)N[N+](=O)[O-])C(=O)N[C@@H](CC(C)C)B(O)O [D.7.28, Boronic acid, [(1R)-1-[[(2S)-5-[[imino(nitroamino)methyl]amino]-2-[(5-fluoro-2-methoxybenzoyl)amino]-1-oxopentyl]amino]-3-methylbutyl]] | > 10000 | < 10 | 
3 | CCN(CC)c1ccc(C(=O)N[C@@H](CCCNC(=N)N[N+](=O)[O-])C(=O)N[C@@H](CC(C)C)B(O)O)cc1 [D.7.8, Boronic acid, [(1R)-1-[[(2S)-5-[[imino(nitroamino)methyl]amino]-2-[(4-diethylaminobenzoyl)amino]-1-oxopentyl]amino]-3-methylbutyl]] | > 10000 | < 10 | 
4 | Boronic acid, [(1R)-1-[[(2S)-5- [[imino(nitroamino)methyl]amino]-2-[(hexahydro- 2,5-methanopentalene-3a(1H)-carbonyl)amino]-1- oxopentyl]amino]-3-methylbutyl] [E.2.24] | > 10000 | < 10 | 
5 | COCCOCC(=O)N[C@@H](CCCNC(=N)N[N+](=O)[O-])C(=O)N[C@@H](CC(C)C)B(O)O [E.1.6, Boronic acid, [(1R)-1-[[(2S)-5-[[imino(nitroamino)methyl]amino]-2-[[2-(2-methoxyethoxy)acetyl]amino]-1-oxopentyl]amino]-3-methylbutyl], HCl salt] |  | < 100 | 2000 to 10000
6 | CC(C)C[C@H](NC(=O)[C@H](CCCNC(=N)N[N+](=O)[O-])NC(=O)c1cnccn1)B(O)O [E.1.2, Boronic acid, [(1R)-1-[[(2S)-5-[[imino(nitroamino)methyl]amino]-2-[(2-pyrazine-carbonyl)amino]-1-oxopentyl]amino]-3-methylbutyl]] | 2000 to 10000 | < 10 | 
7 | CCOC(=O)/C=C/C(=O)N[C@@H](CCCNC(=N)N[N+](=O)[O-])C(=O)N[C@@H](CC(C)C)B(O)O [E.1.1, Boronic acid, [(1R)-1-[[(2S)-5-[[imino(nitroamino)methyl]amino]-2-[((2E)-3-ethoxycarbonyl-1-oxoprop-2-enyl)amino]-1-oxopentyl]amino]-3-methylbutyl]] | > 10000 | < 10 | 
8 | Cc1ccc(/C=C/C(=O)N[C@@H](CCCNC(=N)N[N+](=O)[O-])C(=O)N[C@@H](CC(C)C)B(O)O)cc1 [E.2.60, Boronic acid, [(1R)-1-[[(2S)-5-[[imino(nitroamino)methyl]amino]-2-[[3-(4-methylphenyl)acryl]amino]-1-oxopentyl]amino]-3-methylbutyl]] | 2000 to 10000 | < 10 | 
9 | CC(C)C[C@H](NC(=O)[C@H](CCCNC(=N)N[N+](=O)[O-])NC(=O)CCCCCCCCCCC#N)B(O)O [D.7.60, Boronic acid, [(1R)-1-[[(2S)-5-[[imino(nitroamino)methyl]amino]-2-[(11-cianoundecanoyl)amino]-1-oxopentyl]amino]-3-methylbutyl]] | 2000 to 10000 | < 10 | 

More lines, main results first:

Row | EC50 [1, 3] [nM] | IC50 [2] [nM] | Molecule | EC50 ([1]; read-out: MOLT4 (EC50); assay of Example E, inhibition of MOLT4) [nM]
10 | < 200 | < 10 | Cc1ccc(OCC(=O)N[C@H](C(=O)N[C@@H](CC(C)C)B(O)O)[C@@H](C)O)cc1 [E.3.2] | 
11 | 2000 to 10000 | < 10 | CCCCc1ccc(C(=O)N[C@@H](CCCNC(N)=O)C(=O)N[C@@H](CC(C)C)B(O)O)cc1 [E.1.30, Boronic acid, [(1R)-1-[[(2S)-2-[(4-butylbenzoyl)amino]-1-oxo-5-ureido-pentyl]amino]-3-methylbutyl]] | 
12 | 2000 to 10000 | < 10 | CCc1ccc(OCC(=O)N[C@@H](CCCNC(=N)N[N+](=O)[O-])C(=O)N[C@@H](CC(C)C)B(O)O)cc1 [E.2.55, Boronic acid, [(1R)-1-[[(2S)-5-[[imino(nitroamino)methyl]amino]-2-[[2-(4-ethylphenoxy)acetyl]amino]-1-oxopentyl]amino]-3-methylbutyl]] | 
13 | < 200 | < 10 | CCCCc1ccc(C(=O)N[C@@H](CNC(=O)c2ccc(-n3cncn3)cc2)C(=O)N[C@@H](CC(C)C)B(O)O)cc1 [E.5.40, Boronic acid, [(1R)-1-[[(2S)-3-(4-(1H-1,2,4-triazol-1-yl)benzoylamide)]-2-[(4-butylbenzoyl)amino]-1H-oxopropyl]amino]-3-methylbutyl] hydrochloride] | 
14 | 2000 to 10000 | < 10 | CC(C)C[C@H](NC(=O)[C@H](CCCNC(=N)N[N+](=O)[O-])NC(=O)CCCCCCCCCO)B(O)O [E.2.67, Boronic acid, [(1R)-1-[[(2S)-5-[[imino(nitroamino)methyl]amino]-2-[(10-hydroxydecanoyl)amino]-1-oxopentyl]amino]-3-methylbutyl]] | 
15 | < 200 | < 10 | CC(C)C[C@H](NC(=O)[C@H](CCCNC(=N)N[N+](=O)[O-])NC(=O)COc1ccc(C(C)C)cc1)B1O[C@@H]2C[C@@H]3C[C@@H](C3(C)C)[C@]2(C)O1 [D.3.54] | 
16 | < 200 | < 10 | CCCCCCCCC(=O)N[C@@H](CCCNC(=N)N[N+](=O)[O-])C(=O)N[C@@H](CC(C)C)B1O[C@@H]2C[C@@H]3C[C@@H](C3(C)C)[C@]2(C)O1 [D.3.15, Nonanamide,N-[(1S)-1-[[[(1R)-1-[(3aS,4S,6S,7aR)-hexahydro-3a,5,5-trimethyl-4,6-methano-1,3,2-benzodioxaborol-2-yl]-3-methylbutyl]amino]carbonyl]-4-[[imino(nitroamino)methyl]amino]butyl]] | 
17 | 2000 to 10000 | < 10 | CC(C)C[C@H](NC(=O)[C@H](CCCNC(=N)N[N+](=O)[O-])NC(=O)Cc1ccccc1I)B(O)O [E.2.13, Boronic acid, [(1R)-1-[[(2S)-5-[[imino(nitroamino)methyl]amino]-2-[[2-(2-iodophenyl)acetyl]amino]-1-oxopentyl]amino]-3-methylbutyl]] | 
18 | 2000 to 10000 | < 10 | CC(C)C[C@H](NC(=O)[C@H](CCCNC(=N)N[N+](=O)[O-])NC(=O)c1ccc(C(C)C)cc1)B(O)O [D.7.11, Boronic acid, [(1R)-1-[[(2S)-5-[[imino(nitroamino)methyl]amino]-2-[(4-isopropylbenzoyl)amino]-1-oxopentyl]amino]-3-methylbutyl]] | 
19 | 200 to 2000 | < 10 | CC(C)C[C@H](NC(=O)[C@H](CCCNC(=N)N[N+](=O)[O-])NC(=O)CCCCCNS(=O)(=O)c1ccccc1)B1O[C@@H]2C[C@@H]3C[C@@H](C3(C)C)[C@]2(C)O1 [D.1.12, 6-Benzenesulfonylaminohexanamide,N-[(1S)-1-[[[(1R)-1-[(3aS,4S,6S,7aR)-hexahydro-3a,5,5-trimethyl-4,6-methano-1,3,2-benzodioxaborol-2-yl]-3-methylbutyl]amino]carbonyl]-4-[[imino(nitroamino)methyl]amino]butyl]] | 
20 | < 200 | < 10 | CCCCCCCNC(=O)N[C@@H](CCCNC(=N)N[N+](=O)[O-])C(=O)N[C@@H](CC(C)C)B1O[C@@H]2C[C@@H]3C[C@@H](C3(C)C)[C@]2(C)O1 [D.6.3, N-[(1S)-1-[[[(1R)-1-[(3aS,4S,6S,7aR)-hexahydro-3a,5,5-trimethyl-4,6-methano-1,3,2-benzodioxaborol-2-yl]-3-methylbutyl]amino]carbonyl]-4-[[imino(nitroamino)methyl]amino]butyl]-N′-heptyl urea] | 
21 | < 200 | < 10 | CC(C)C[C@H](NC(=O)[C@@H](NC(=O)c1ccc2ccccc2c1)[C@@H](C)O)B1O[C@@H]2C[C@@H]3C[C@@H](C3(C)C)[C@]2(C)O1 [D.3.180, Naphthalene-2-carboxamide,N-[(1S,2R)-1-[[[(1R)-1-[(3aS,4S,6S,7aR)-hexahydro-3a,5,5-trimethyl-4,6-methano-1,3,2-benzodioxaborol-2-yl]-3-methylbutyl]amino]carbonyl]-2-hydroxypropyl]] | 
22 | < 200 | < 10 | CC(C)C[C@H](NC(=O)[C@H](CCCNC(=N)N[N+](=O)[O-])NC(=O)/C=C/c1ccc(Br)cc1)B1O[C@@H]2C[C@@H]3C[C@@H](C3(C)C)[C@]2(C)O1 [D.3.92, (E)-3-(4-Bromophenyl)acrylamide,N-[(1S)-1-[[[(1R)-1-[(3aS,4S,6S,7aR)-hexahydro-3a,5,5-trimethyl-4,6-methano-1,3,2-benzodioxaborol-2-yl]-3-methylbutyl]amino]carbonyl]-4-[[imino(nitroamino)methyl]amino]butyl]] | 
